Read-outs that look alike come from different tables or passages of the source. Marks after values point to notes of the source that are not given here.
Legend:
[1] = cited from earlier work
bone metastases = experiment: Clinical outcome in patients (bone pain, energy, bone scan); assay type: in vivo, human; conditions: Patient 1
Description: (§1) Patients were consenting adult patients with histologically/cytologically confirmed advanced hormone-refractory prostate cancer not curable by conventional therapies that fulfilled the standard phase 1 liver, renal and Karnofsky performance eligibility requirements. The patients also had to meet one of the two following requirements. A positive bone scan and/or imaging study for bone metastasis with accompanying bone pain had to be present with rising PSA values, identified in three consecutive PSA observations, following definitive surgery and/or radiation therapy and anti-androgen hormonal therapy. PSA levels (>10 ng/ml) and a positive bone scan and bone pain at time of initial diagnosis.

HRPA cells = conditions: preclinical observations, Janssens and Boeynaems (2001); Fang et al. (1992); cited from earlier work
[2] = Monitoring of patients for adverse effects / tolerability; assay type: in vivo, human
Description: (§2) This regime was maintained until the maximally tolerated dose (MTD) was reached.

[3] = ATP i.v. infusion dose escalation to maximally tolerated dose (present disclosure); assay type: in vivo, human; conditions: duration 8 hours
Description: as §2, §1
Average patient age was between 50 and 85 years of age. Patients were excluded if they met the standard phase 1 respiratory and cardiac exclusion criteria.
ATP infusion therapy was as described above.

[4] = tested on: hormone-refractory prostate adenocarcinoma (HRPA); experiment: Blood PSA response in hormone-refractory prostate cancer patients with bone metastasis; assay type: in vivo, human
Procedure: Treatment of hormone-refractory prostate adenocarcinoma (HRPA) patients presents a complex combination of tumor and pain management. […] HRPA outcomes and PSA measurements were determined pre- and post-treatment within 25–45 days after Sm-153 administration.
[formula] PSA decreases of greater than 50% from baseline are associated with improved survivals in prostate cancer patients [Zyskowski, et al. (2001) Australas Radiol. 45:39; Kelly, et al. (1993) J. Clin. Oncol. 11:607).
The change in PSA was expressed as a ratio rather than a strict difference due to assumed relative changes. Furthermore, assumed multiplicative error provided that the variation of PSA levels increased with an increase in PSA levels. The combination of these two assumptions provided that the PSA responses be compared on the log scale. Furthermore, it is known that the log scale stabilizes the variance (Rosner, In: Fundamentals of Bio-statistics, 5th edition, Pacific Grove: Duxbury) and it has been observed that the variation in PSA among patients with prostate cancer is higher than in healthy (disease-free) controls.
This regime was maintained until the maximally tolerated dose (MTD) was reached. […]

## Nc1ncnc2c1ncn2[C@@H]1O[C@H](COP(=O)(O)OP(=O)(O)OP(=O)(O)O)[C@@H](O)[C@H]1O [ATP, Adenosine triphosphate]
[1]; Study 1, Gaba (1990), incremental i.v. dose levels, each infusion 20 min.
  MTD: 125* μg/kg/min
[1]; Study 4, Haskell et al. (1998), duration 96 hours
  MTD: 50 µg/kg/min
[1]; Study 5, Agteresch et al. (2000), infused over 30 hours, start 20 μg/kg/min, increments of 10 every 30 minutes
  MTD: 65 to 75 µg/kg/min
[1]; Study 6, Haskell et al. (1996), duration 96 hours
  MTD: 75 µg/kg/min
Bone metastases; eighth week, 100 μg/kg/min × 8 hours
  energy levels, exercise and activity: improved energy levels at home and improved exercise and activity
Bone metastases; end of the eight weeks of ATP therapy
  bone pain: continued to have bone pain
HRPA cells
  effect on HRPA cells in vitro: inhibits
[2]; 8-hour infusion once weekly at 50 up to 100 μg/kg/minute
  tolerability: well tolerated by most patients
[2]; Patient 1, 33% at start of trial, transfusion given at nadir
  hematocrit NADIR: 25%
[2]; Patient 1, eight weekly i.v. infusions
  side effects of ATP infusion: minor side effects
[3]; Study 2, present disclosure
  MTD: 75 µg/kg/min
[3]; Study 3, present disclosure
  MTD: 100 µg/kg/min
[4]; Patient 1, eight weekly i.v. ATP infusions, no Sm-153, PSA at start 2732 ng/ml
  rate of PSA level increase during ATP treatments: stabilized
[4]; three advanced prostate cancer patients, i.v. infused ATP
  PSA levels during ATP treatment: stabilized
